Test results taken from patent publication US8722649B2, “Alpha-chloro and alpha-bromo phosphonate analogs of lysophosphatidic acid and methods of making and using thereof” (University of Utah Research Foundation, priority 2007, dated 2014).
“Also recorded” adds a separate entry of the source.

Tests used:
LPA GPCRs = test: Ca2+ mobilization assay, overall profile across LPA GPCRs; type: cell-based, human; conditions: across LPA1-4
Description: After incubating the cells with Fura-2 AM, the cells were rinsed with Krebs buffer and changes in the intracellular Ca^2+ concentration were monitored by determining the ratio of emitted light intensities at 520 nm in response to excitation at 340 and 380 nm using FLEXstation II (Molecular Devices, Sunnyvale, Calif.). Each well was monitored for 80-120 sec. For testing agonist activity of the compounds, the test compounds were added automatically after 15 sec of baseline measurement. To determine antagonist properties, varying concentrations of the compounds were mixed with a constant concentration of LPA and responses were monitored. Each test was performed in quadruplicate. EC50, IC50, and Ki values were calculated by fitting a sigmoid function to data points with the nonlinear curve-fitting feature of KaleidaGraph (Synergy Software, Essex Junction, Vt.).
Receptor activation using Ca^2+ mobilization assay. The assay for mobilization of intracellular Ca^2+ was performed as described. […] Using a FLEXStation (Molecular Devices, Sunnyvale, Calif.), changes in intracellular Ca^2+ concentration were monitored. Ligand-induced changes in fluorescence were monitored for 80-120 seconds. Ca^2+ transients were quantified automatically by calculating the difference between maximum and baseline ratio values for each sample. […] EC50, IC50, and Ki values were calculated as described. […]

MDA-MB-231 cells = test: Matrigel transwell invasion assay; type: cell-based; conditions: Homo sapiens, 24 h, read-out: inhibition of MDA-MB-231 invasion through Matrigel
Description: Inhibition of invasion. The invasive behavior of cells was determined in vitro by using 24-well transwell inserts with an 8 μm pore size PET membrane which were coated with Matrigel basement membrane matrix. A suspension of cells (100 μL of 5×10^4) in serum-free medium with or without 10 μM syn-BrP-LPA la or anti-BrP-LPA 1b was added to triplicate inserts, and 600 μL medium supplemented with serum was used as a chemoattractant in the lower chamber. […] Ten fields of cells were counted for each well, and the mean number of cells per field was calculated. Each experiment was performed in triplicate and repeated at least twice.

HCT 116 cells [1] = test: Hepatic colon cancer tumor growth; type: in vivo, nude mice; conditions: 10 mg/kg i.p. twice per week
Description: Four-week-old female athymic nude mice (Charles River Laboratories, Wilmington, Mass.) were used for colon cell implantation. All animals were maintained in a sterile environment. Cages, bedding, food, and water were all autoclaved. All animals were maintained on a daily 12-hr light/12-hr dark cycle.
Nude mice were anesthetized by intraperitoneal injection of ketamine (80 mg/kg) and xylazine (10 mg/kg) according to the protocol approved by the University of Utah Institutional Animal Care and Use Committee (IACUC).
After anesthesia induction, the aseptic surgical field was sterilized with iodine and alcohol swabs. HCT 116 cells (1×10^6) in 50 μl of the sECM hydrogel Extracel was directly injected into the livers of nude mice after they had been randomly assigned to one of the groups at the beginning of the experiment (8 mice/group).
The control group received physiological saline i.p. injection twice per week starting at one week after the cell transplantation and ended at two weeks after the treatment. The treatment group received i.p. administration of the pure diastereomers 1b at 10 mg/kg twice per week with the same period of control group.
Mice were observed daily. Animals were euthanized at 3 weeks post-injection in a carbon dioxide chamber. Body weights were measured, and the livers were excised. Liver weights and tumor diameters were subsequently determined. Colon tumors were measured using digital calipers. The volume of the cancer was then calculated according to the formula: Cancer Volume (CV)=d2×D/2, where d and D are the shortest and the longest diameters, respectively. After measurement, the tumor tissue was then harvested and placed in 10% formalin for paraffin embedding in preparation for the subsequent histological analyses.

HCT 116 cells [2] = test: HCT 116 wound-healing migration assay; type: cell-based; conditions: 20 μM; 0, 16, 24 and 48 hours
Description: Effects of BrP-LPA analogs on HCT 116 migration. HCT 116 (2×10^5 per well) were plated in a six-well plate. When the cells were 100% confluent, the cells were treated with Mitomycin C (Sigma, MO, USA) 10 μg/ml for 2 hours, and then the monolayer was scratched using a 200 μl pipette tip. Medium and nonadherent cells were aspirated, the adherent cells were washed once, and new medium containing various concentrations of the pure diastereomers 1a and 1b, and the mixed diastereomers 1 (2 μM, 10 μM, 20 μM) was added (FIG. 13). A photograph was taken at the marked field (n=4) at 0, 16, 24 and 48 hours (FIG. 14). Wound closure was expressed as a percentage of the initial wound area, which was quantified using NIH ImageJ software.

HCT 116 cells [3] = test: HCT 116 proliferation (MTS); type: cell-based; conditions: 2, 10, 20 μM, 72 h
Excerpt: Effects of bromo-LPA analogs on HCT 116 proliferation. HCT 116 cells were purchased from the American Type Culture Collection (Manassas, Mass.). Medium and reagents were obtained from the following sources: McCoy's 5a Medium (ATCC, Manassas, Va.); Penicillin-Streptomycin (MP biomedicals, Solon, Ohio); Fetal bovine serum (ATCC, Manassas, Mass.); Accutase (MP biomedicals, Solon, Ohio); MTS (Promega, Madison, Wis.); Matrigel (Becton Dickinson Labware, Cambridge, Mass.); Extracel (Glycosan, Salt Lake City, Utah). Lysophosphatidic acid receptor pan-Antagonist (LPAa)—the pure diastereomers 1a and 1b, and the mixed diastereomers 1 (University of Utah, Salt Lake City, Utah).
HCT 116 cells were maintained in McCoy's 5a medium supplemented with 10% FBS, 100 μg/ml streptomycin, and 100 units/ml penicillin at 37° C. in 95% air, 5% CO2. 4,000HCT-116 cells were seeded in 100 μl media in each well of 96-well flat-bottomed microplates (BD Labware, N.J.). The pure diastereomers 1a and 1b, and the mixed diastereomers 1 were added at various final concentrations (2 μM, 10 μM, 20 μM) to each column. At 72 h, pipet 20 μl MTS (Promega, Madison, Wis.) into each well, and cells were further incubated for 2 h. The absorbance of the samples at 490 nm was measured using a 96-well plate reader (OPTI max, Sunnyvale, Calif.).

Row | Compound | overall LPA GPCR ligand profile (LPA GPCRs) | inhibition at 10 µM (MDA-MB-231 cells) [%] | hepatic tumor burden (liver weight) (HCT 116 cells [1]) | new blood vessels in hepatic colon tumor (H&E) (HCT 116 cells [1]) | hepatic tumor size / tumor volume in words (HCT 116 cells [1]; vs untreated control) | HCT 116 cell migration (HCT 116 cells [2]) | HCT 116 cell proliferation (HCT 116 cells [3])
1 | CCCCCCCCCCCCCCCC(=O)OC[C@@H](O)C[C@@H](Br)P(=O)(O)O [Compound 1a] | pan-antagonist | ~52 | – | – | – | – | –
2 | CCCCCCCCCCCCCCCC(=O)OC[C@@H](O)C[C@H](Br)P(=O)(O)O [Compound 1b] | – | ~52 | marked reduction of hepatic tumor burden; also recorded: significantly reduced tumor burden | significantly reduced amounts of new blood vessels | significantly smaller; also recorded: significant decrease in tumor volume; also recorded: smaller than the untreated control | greatest inhibition | highly suppressed; also recorded: dose-dependent inhibition
